{"source": "patent US9422297B2", "about": "“Tricyclic compounds having cytostatic and/or cytotoxic activity and methods of use thereof” (Duquesne University of the Holy Ghost, priority 2007, dated 2016)", "assay_type_in_all_cases": "cell-based", "key": {"NCI-H226": {"system": "NCI-H226", "test": "NCI In-Vitro Testing, Non-Small Cell Lung Cancer"}, "HCT-15": {"system": "HCT-15", "test": "NCI In-Vitro Testing, Colon Cancer"}, "NCI-H460": {"system": "NCI-H460", "test": "NCI In-Vitro Testing, Non-Small Cell Lung Cancer"}, "MDA-MB-231/ATCC": {"system": "MDA-MB-231/ATCC", "test": "NCI In-Vitro Testing, Breast Cancer"}, "SF-539": {"system": "SF-539", "test": "NCI In-Vitro Testing, CNS Cancer"}}}
{"smiles": "Nc1nc2c(c(Nc3ccc(Cl)cc3)n1)-c1ccccc1C2", "note": "[AAG145-136]", "values": [{"measurement": "GI50", "setting": "NCI-H226", "result": "2.14E−6", "unit": "Molar"}, {"measurement": "LC50", "setting": "NCI-H226", "result": ">1.00E−4", "unit": "Molar"}, {"measurement": "TGI", "setting": "NCI-H226", "result": ">1.00E−4", "unit": "Molar"}, {"measurement": "Percent Growth", "setting": "NCI-H226; Log10 Concentration −4.0 Molar", "result": 14, "unit": "%"}, {"measurement": "Percent Growth", "setting": "NCI-H226; Log10 Concentration −5.0 Molar", "result": 36, "unit": "%"}, {"measurement": "Percent Growth", "setting": "NCI-H226; Log10 Concentration −6.0 Molar", "result": 57, "unit": "%"}, {"measurement": "Percent Growth", "setting": "NCI-H226; Log10 Concentration −7.0 Molar", "result": 97, "unit": "%"}, {"measurement": "Percent Growth", "setting": "NCI-H226; Log10 Concentration −8.0 Molar", "result": 98, "unit": "%"}, {"measurement": "GI50", "setting": "HCT-15", "result": "4.34E−7", "unit": "Molar"}, {"measurement": "LC50", "setting": "HCT-15", "result": ">1.00E−4", "unit": "Molar"}, {"measurement": "TGI", "setting": "HCT-15", "result": "1.22E−5", "unit": "Molar"}, {"measurement": "Percent Growth", "setting": "HCT-15; Log10 Concentration −4.0 Molar", "result": "−39", "unit": "%"}, {"measurement": "Percent Growth", "setting": "HCT-15; Log10 Concentration −5.0 Molar", "result": 4, "unit": "%"}, {"measurement": "Percent Growth", "setting": "HCT-15; Log10 Concentration −6.0 Molar", "result": 29, "unit": "%"}, {"measurement": "Percent Growth", "setting": "HCT-15; Log10 Concentration −7.0 Molar", "result": 68, "unit": "%"}, {"measurement": "Percent Growth", "setting": "HCT-15; Log10 Concentration −8.0 Molar", "result": 94, "unit": "%"}, {"measurement": "GI50", "setting": "NCI-H460", "result": "1.93E−8", "unit": "Molar"}, {"measurement": "LC50", "setting": "NCI-H460", "result": ">1.00E−4", "unit": "Molar"}, {"measurement": "TGI", "setting": "NCI-H460", "result": ">1.00E−4", "unit": "Molar"}, {"measurement": "Percent Growth", "setting": "NCI-H460; Log10 Concentration −4.0 Molar", "result": 3, "unit": "%"}, {"measurement": "Percent Growth", "setting": "NCI-H460; Log10 Concentration −5.0 Molar", "result": 3, "unit": "%"}, {"measurement": "Percent Growth", "setting": "NCI-H460; Log10 Concentration −6.0 Molar", "result": 15, "unit": "%"}, {"measurement": "Percent Growth", "setting": "NCI-H460; Log10 Concentration −7.0 Molar", "result": 23, "unit": "%"}, {"measurement": "Percent Growth", "setting": "NCI-H460; Log10 Concentration −8.0 Molar", "result": 61, "unit": "%"}, {"measurement": "GI50", "setting": "MDA-MB-231/ATCC", "result": "6.41E−7", "unit": "Molar"}, {"measurement": "LC50", "setting": "MDA-MB-231/ATCC", "result": ">1.00E−4", "unit": "Molar"}, {"measurement": "TGI", "setting": "MDA-MB-231/ATCC", "result": ">1.00E−4", "unit": "Molar"}, {"measurement": "Percent Growth", "setting": "MDA-MB-231/ATCC; Log10 Concentration −4.0 Molar", "result": 30, "unit": "%"}, {"measurement": "Percent Growth", "setting": "MDA-MB-231/ATCC; Log10 Concentration −5.0 Molar", "result": 29, "unit": "%"}, {"measurement": "Percent Growth", "setting": "MDA-MB-231/ATCC; Log10 Concentration −6.0 Molar", "result": 45, "unit": "%"}, {"measurement": "Percent Growth", "setting": "MDA-MB-231/ATCC; Log10 Concentration −7.0 Molar", "result": 70, "unit": "%"}, {"measurement": "Percent Growth", "setting": "MDA-MB-231/ATCC; Log10 Concentration −8.0 Molar", "result": 92, "unit": "%"}, {"measurement": "GI50", "setting": "SF-539", "result": "3.81E−7", "unit": "Molar"}, {"measurement": "LC50", "setting": "SF-539", "result": ">1.00E−4", "unit": "Molar"}, {"measurement": "TGI", "setting": "SF-539", "result": ">1.00E−4", "unit": "Molar"}, {"measurement": "Percent Growth", "setting": "SF-539; Log10 Concentration −4.0 Molar", "result": 2, "unit": "%"}, {"measurement": "Percent Growth", "setting": "SF-539; Log10 Concentration −5.0 Molar", "result": 20, "unit": "%"}, {"measurement": "Percent Growth", "setting": "SF-539; Log10 Concentration −6.0 Molar", "result": 31, "unit": "%"}, {"measurement": "Percent Growth", "setting": "SF-539; Log10 Concentration −7.0 Molar", "result": 77, "unit": "%"}, {"measurement": "Percent Growth", "setting": "SF-539; Log10 Concentration −8.0 Molar", "result": 101, "unit": "%"}]}
